Columns and labels:
wild-type human CDK3 = target: T1, wild-type human CDK3 (Homo sapiens, UniProt Q00526); test: Cell-based assay for CDK3 inhibition: fraction of Tomato+ MDA-MB-157 cells infected with wild-type CDK3-expressing lentivirus
T1 construct: Full-length cDNAs of wild-type human CDK3; expressed in transfected cells; host or cells: MDA-MB-157 breast carcinoma cells, lentiviral vector pHIV-dTomato
Protocol: MDA-MB-157 cells were cultured in RPMI with 10% FBS+PS 1× and Glu 1×.
In the experiment shown in FIG. 2, MDA-MB-157 cells were plated at 10^5 cells per well of a 6-well plate and infected with 1 ml of lentiviral stocks expressing wild-type CDK3 or E195D CDK3 mutant, with 1× polybrene solution. 24 hrs post-infection, the media were changed to virus-free polybrene-free media. 8 days post-infection (FIG. 2) or 23 days post-infection (FIG. 2), the samples were immediately analyzed for Tomato (red fluorescent marker carried in the vector) fluorescence using Becton-Dickinson LSRII flow cytometer. The fraction of the infected cells was defined as the percentage of Tomato+cells.
In this experiment, MDA-MB-157 cells were plated at 5×10^5 cells per P100 plate. Cells were infected with 5 ml of media supernatant containing the wild-type CDK3 lentivirus, with 1× polybrene solution. 24 hrs post-infection, the media were changed to virus-free polybrene-free media. 48 hrs post-infection, cells were replated into 24-well plates, at 25,000 cells per well. The culture media (1 ml volume) in each well contained the CDK3 inhibitor SNX9-1-20 at 2, 1.75, 1.5, 1.25, 1, 0.9, 0.75, 0.5, 0.35, 0.2 and 0 μM (DMSO 0.1%), in duplicates. […] 4′,6-diamidino-2-phenylindole (DAPI) was added to the final concentration of 1 μg/ml and the samples were analyzed for DAPI and Tomato fluorescence using the flow cytometer.

wild-type human CDK2 = target: T2, wild-type human CDK2 (Homo sapiens, UniProt P24941); test: Cell-based assay for CDK2 inhibition: fraction of Tomato+ MDA-MB-157 cells infected with wild-type CDK2-expressing lentivirus
T2 construct: Full-length cDNAs of wild-type human CDK2 conjugated with a HA tag; expressed in transfected cells; host or cells: MDA-MB-157 breast carcinoma cells, lentiviral vector pHIV-dTomato
Protocol: MDA-MB-157 cells were cultured in RPMI with 10% FBS+PS 1X and Glu 1X.
In this experiment, MDA-MB-157 cells were plated at 5×10^5 cells per P100 plate. Cells were infected with 5 ml of media supernatant containing the wild-type of both CDK3 and CDK2 lentivirus, with 1 × polybrene solution. 24 hrs post-infection, the media were changed to virus-free polybrene-free media. 48 hrs post-infection, cells were replated into 24-well plates, at 25,000 cells per well. […] On day 5 after plating, the cells were harvested, centrifuged, suspended in RPMI and aliquoted at 200 μl per well into 96-well plates. 4′,6-diamidino-2-phenylindole (DAPI) was added to the final concentration of 1 μg/ml and the samples were analyzed for DAPI and Tomato fluorescence using the flow cytometer.

CC(C)[C@H](CO)Nc1nc(Nc2cccc(Cl)c2)c2ncn(C(C)C)c2n1 [Purvalanol-A, Purvalanol A]
fraction of infected (Tomato+) cells, wild-type CDK3 lentivirus (wild-type human CDK3; 1.6 μM inhibitor, day 5 after plating, Example 2 (without inhibitor: 48.85% SNX9-1-20 experiment, 14.8% Purvalanol-A experiment)): 66.5% | EC50 (wild-type human CDK3; Example 2, FIG. 4 and FIG. 5, day 5, read-out: concentration producing half-maximal effect on the increase in the fraction of cells infected with the wild-type CDK3 lentivirus): 600 nM | fraction of wild-type CDK2 infected (Tomato+) cells (wild-type human CDK2; 1.6 μM inhibitor, day 5 after plating, 25.5% in the absence of inhibitor, FIG. 5): 65.25% | EC50 (wild-type human CDK2; Example 2, FIG. 5, day 5, read-out: concentration producing half-maximal effect on the increase in the fraction of infected cells (printed: wild-type CDK3 lentivirus; follows the CDK2 result)): 200 nM

Reference: patent US10584369B2, “Cell-based methods for measuring activity of a protein inhibitor” (priority 2013, dated 2020)
